This data set deals with rodent carcinogenicity bioassays, tumor incidence. The data set is described as follows: CCRIS carcinogenicity studies. The essentials: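 NCI-built, expert-reviewed records of carcinogenicity and related test outcomes (mutagenicity, tumor promotion/inhibition) compiled from published and report sources, historical span 1985-2011, not updated.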

The source made the active and inactive calls. No rule for the calls is given here.

As to `CCn1c2ccccc2c2ccccc21`, the carcinogen call (Species: MOUSE, Strain/Sex: CD-1/FEMALE, Route: INTRAPERITONEAL, Dose: 0, 1.75 UMOL/MOUSE (TOTAL DOSE) ADMINISTERED DURING DAYS 1, 8, AND 15 OF LIFE (STUDY DURATION: 52 WK)) was “inactive; negative” and the carcinogen call (Species: MOUSE, Strain/Sex: CD-1/MALE, Route: INTRAPERITONEAL, Dose: 0, 1.75 UMOL/MOUSE (TOTAL DOSE) ADMINISTERED DURING DAYS 1, 8, AND 15 OF LIFE (STUDY DURATION: 52 WK)) was “inactive; negative”.
Take `Nc1ccc(N)c2c1C(=O)c1c(N)ccc(N)c1C2=O`: the carcinogen call reads like this: (Species: MOUSE, Strain/Sex: B6C3F1/FEMALE, Route: ORAL, Dose: 0, 600, 1200, 2500 PPM IN DIET FOR 104 WK (STUDY DURATION: 105 WK), Dose: 0, 600, 1200, 2500 PPM IN DIET FOR 104 WK (STUDY DURATION: 105 WK)) “inactive; negative”; (Species: MOUSE, Strain/Sex: B6C3F1/MALE, Route: ORAL, Dose: 0, 600, 1200, 2500 PPM IN DIET FOR 104 WK (STUDY DURATION: 105 WK), Dose: 0, 600, 1200, 2500 PPM IN DIET FOR 104 WK (STUDY DURATION: 105 WK), Tumor Site: Type of Lesion: LIVER: HEPATOCELLULAR ADENOMA OR CARCINOMA, LUNG: ALVEOLAR/BRONCHIOLAR ADENOMA OR CARCINOMA) “equivocal”; (Species: RAT, Strain/Sex: F344/FEMALE, Route: ORAL, Dose: 0, 1250, 2500, 5000 PPM IN DIET FOR 103 WK (STUDY DURATION: 105 WK), Dose: 0, 1250, 2500, 5000 PPM IN DIET FOR 103 WK (STUDY DURATION: 105 WK), Tumor Site: Type of Lesion: URINARY BLADDER: SQUAMOUS CELL PAPILLOMA, SQUAMOUS CELL CARCINOMA, TRANSITIONAL CELL PAPILLOMA, TRANSITIONAL CELL CARCIN) “active; positive”; (Species: RAT, Strain/Sex: F344/MALE, Route: ORAL, Dose: 0, 1250, 2500, 5000 PPM IN DIET FOR 103 WK (STUDY DURATION: 105 WK), Dose: 0, 1250, 2500, 5000 PPM IN DIET FOR 103 WK (STUDY DURATION: 105 WK), Tumor Site: Type of Lesion: URINARY BLADDER: SQUAMOUS CELL PAPILLOMA, SQUAMOUS CELL PAPILLOMA OR CARCINOMA, TRANSITIONAL CELL PAPILLOMA, TRANSITIONA) “active; positive”.
With `C=CCc1ccc2c(c1)OCO2`, the carcinogen call is “active; positive” (Species: MOUSE, Strain/Sex: B6AKF1/MALE,FEMALE, Route: GAVAGE, ORAL, Dose: 464 MG/KG FROM D 7-28 OF LIFE THEN 1112 MG/KG IN DIET, Tumor Site: Type of Lesion: LIVER: HEPATOCELLULAR TUMOR); “active; positive” (Species: MOUSE, Strain/Sex: B6C3F1/MALE,FEMALE, Route: GAVAGE, ORAL, Dose: 464 MG/KG FROM D 7-28 OF LIFE THEN 1112 MG/KG IN DIET, Tumor Site: Type of Lesion: LIVER: HEPATOCELLULAR TUMOR); “active; positive” (Species: MOUSE, Strain/Sex: BALB/MALE, Route: ORAL, Dose: 0, 4000 PPM IN DIET FOR 52 WK (STUDY DURATION: 75 WK), Tumor Site: Type of Lesion: LIVER: HEPATOCELLULAR CARCINOMA, HEPATOCELLULAR ADENOMA); “active; positive” (Species: MOUSE, Strain/Sex: CD-1/MALE, Route: ORAL, Dose: 4000, 5000 MG/KG IN DIET FOR 13 MO, Tumor Site: Type of Lesion: LIVER: HEPATOCELLULAR CARCINOMA); “active; positive” (Species: MOUSE, Strain/Sex: CD-1/MALE, Route: SUBCUTANEOUS, Dose: 0.66, 6.6 MG (TOTAL DOSES) IN TRICAPRYLIN IN 3 WK, Tumor Site: Type of Lesion: LIVER); “active; positive” (Species: MOUSE, Strain/Sex: SWISS/FEMALE, Route: SUBCUTANEOUS, Dose: 0.66, 6.6 MG (TOTAL DOSES) IN TRICAPRYLIN IN 3 WK, Tumor Site: Type of Lesion: LUNG: ADENOMA, ADENOCARCINOMA). Further, the carcinogen call is, setting by setting: (Species: MOUSE, Strain/Sex: SWISS/MALE, Route: SUBCUTANEOUS, Dose: 0.66, 6.6 MG (TOTAL DOSES) IN TRICAPRYLIN IN 3 WK, Tumor Site: Type of Lesion: LIVER: HEPATOMA) “active; positive”; (Species: RAT, Strain/Sex: OSBORNE-MENDEL/MALE,FEMALE, Route: ORAL, Dose: 100, 500, 1000, 5000 MG/KG IN DIET FOR 2 YR, Dose: 100, 500, 1000, 5000 MG/KG IN DIET FOR 2 YR, Tumor Site: Type of Lesion: LIVER: HEPATOCELLULAR CARCINOMA, CHOLANGIOCARCINOMA) “active; positive”.
Take `c1ccc2ccccc2c1`: the carcinogen call (Species: MOUSE, Strain/Sex: B6C3F1/FEMALE, Route: INHALATION, Dose: 0, 10, 30 PPM 6 HR/D 5 D/WK FOR 104 WK (STUDY DURATION: 104 WK), Dose: 0, 10, 30 PPM 6 HR/D 5 D/WK FOR 104 WK (STUDY DURATION: 104 WK), Tumor Site: Type of Lesion: LUNG: ALVEOLAR/BRONCHIOLAR ADENOMA OR CARCINOMA) was “active; positive”; the carcinogen call (Species: MOUSE, Strain/Sex: B6C3F1/MALE, Route: INHALATION, Dose: 0, 10, 30 PPM 6 HR/D 5 D/WK FOR 104 WK (STUDY DURATION: 104 WK), Dose: 0, 10, 30 PPM 6 HR/D 5 D/WK FOR 104 WK (STUDY DURATION: 104 WK)) was “inactive; negative”; the carcinogen call (Species: MOUSE, Strain/Sex: CD-1/FEMALE, Route: INTRAPERITONEAL, Dose: 0, 0.25, 0.5, 1.0 UMOL IN DMSO TO NEWBORN MICE ON DAY 1, 8 AND 15 OF LIFE RESPECTIVELY (TOTAL DOSE: 1.75 UMOL) (STUDY DU, Dose: 0, 0.25, 0.5, 1.0 UMOL IN DMSO TO NEWBORN MICE ON DAY 1, 8 AND 15 OF LIFE RESPECTIVELY (TOTAL DOSE: 1.75 UMOL) (STUDY DU) is “inactive; negative”; the carcinogen call (Species: MOUSE, Strain/Sex: CD-1/MALE, Route: INTRAPERITONEAL, Dose: 0, 0.25, O.5, 1.0 UMOL IN DMSO TO NEWBORN MICE ON DAY 1,8 AND 15 OF LIFE RESPECTIVELY (TOTAL DOSE: 1.75 UMOL) (STUDY DUR, Dose: 0, 0.25, O.5, 1.0 UMOL IN DMSO TO NEWBORN MICE ON DAY 1,8 AND 15 OF LIFE RESPECTIVELY (TOTAL DOSE: 1.75 UMOL) (STUDY DUR) was “inactive; negative”; the carcinogen call (Species: RAT, Strain/Sex: F344/N/FEMALE, Route: INHALATION, Dose: 0, 10, 30, 60 PPM 6 HR/D 5 D/WK FOR 105 WK (STUDY DURATION: 105 WK), Dose: 0, 10, 30, 60 PPM 6 HR/D 5 D/WK FOR 105 WK (STUDY DURATION: 105 WK), Tumor Site: Type of Lesion: NOSE: NEUROBLASTOMA) was “active; positive”; the carcinogen call (Species: RAT, Strain/Sex: F344/N/MALE, Route: INHALATION, Dose: 0, 10, 30, 60 PPM 6 HR/D 5 D/WK FOR 105 WK (STUDY DURATION: 105 WK), Dose: 0, 10, 30, 60 PPM 6 HR/D 5 D/WK FOR 105 WK (STUDY DURATION: 105 WK), Tumor Site: Type of Lesion: NOSE: ADENOMA) is “active; positive”.
Regarding `CCCc1cc2ccccc2c2ccc3c(c12)C1OC1C(O)C3O` (stereo not given), the carcinogen call runs as follows: (Species: MOUSE, Strain/Sex: ICR/FEMALE, Route: INTRAPERITONEAL, Dose: 0, 8 NMOL IN 5 µL DMSO ON D 1, 16 NMOL IN 10 µL ON D 8 AND 32 NMOL IN 20 µL ON D 15 OF LIFE (STUDY DURATION: 35 WK)) “inactive; negative”; (Species: MOUSE, Strain/Sex: ICR/MALE, Route: INTRAPERITONEAL, Dose: 0, 8 NMOL IN 5 µL DMSO ON D 1, 16 NMOL IN 10 µL ON D 8 AND 32 NMOL IN 20 µL ON D 15 OF LIFE (STUDY DURATION: 35 WK)) “inactive; negative”.
As for `CCCCN(C)N=O`, the carcinogen call is, setting by setting: (Species: HAMSTER, Strain/Sex: SYRIAN/FEMALE, Route: GAVAGE, Dose: 0, 2.5, 5 MG/KG 1/WK FOR 23-30 WK (TOTAL DOSE: 0; 0.65; 1.0 MMOL) (STUDY DURATION: LIFETIME), Dose: 0, 2.5, 5 MG/KG 1/WK FOR 23-30 WK (TOTAL DOSE: 0; 0.65; 1.0 MMOL) (STUDY DURATION: LIFETIME), Tumor Site: Type of Lesion: LIVER: HEPATOCELLULAR ADENOMA, LUNG: ALVEOLAR/BRONCHIAL ADENOMA, NASAL MUCOSA: CARCINOMA, ADENOMA, FORESTOMACH: SQUAMOUS, Tumor Site: Type of Lesion: LIVER: HEPATOCELLULAR ADENOMA, LUNG: ALVEOLAR/BRONCHIAL ADENOMA, NASAL MUCOSA: CARCINOMA, ADENOMA, FORESTOMACH: SQUAMOUS) “active; positive”; (Species: HAMSTER, Strain/Sex: SYRIAN/MALE, Route: GAVAGE, Dose: 0, 2.5, 5 MG/KG 1/WK FOR 23-30 WK (TOTAL DOSE: 0; 0.65; 1.0 MMOL) (STUDY DURATION: LIFETIME), Dose: 0, 2.5, 5 MG/KG 1/WK FOR 23-30 WK (TOTAL DOSE: 0; 0.65; 1.0 MMOL) (STUDY DURATION: LIFETIME), Tumor Site: Type of Lesion: LIVER: HEPATOCELLULAR ADENOMA, HEMANGIOSARCOMA, LUNG: ALVEOLAR/BRONCHIAL ADENOMA, NASAL MUCOSA: CARCINOMA, ADENOMA, FORE, Tumor Site: Type of Lesion: LIVER: HEPATOCELLULAR ADENOMA, HEMANGIOSARCOMA, LUNG: ALVEOLAR/BRONCHIAL ADENOMA, NASAL MUCOSA: CARCINOMA, ADENOMA, FORE) “active; positive”; (Species: RAT, Strain/Sex: F344/FEMALE, Route: INTRAVESICULAR, Dose: 0, 3 MG IN 0.2 ML ETHANOL: DEIONIZED WATER (1:3) 2/WK FOR 17 WK (TOTAL DOSE 0.9 MMOL) (STUDY DURATION: LIFESPAN), Tumor Site: Type of Lesion: ESOPHAGUS: TUMOR, LIVER: HEMANGIOSARCOMA) “active; positive”.
